From patent US12622977B2, “Antibody drug conjugate” (CHIA TAI TIANQING PHARMACEUTICAL GROUP CO., LTD., priority 2020, dated 2026)

Experiments:
Assay type in all cases: cell-based
[1] = system: HER2 positive tumor cells NCI-N87; experiment: Proliferation inhibition of NCI-N87 cells by DXD and DDDXD (CCK-8); settings: Homo sapiens, NCI-N87, 120 h
Description: DXD and DDDXD were pre-diluted to 140,000 ng/mL in culture medium and labeled as S1, and then five-fold serially diluted to obtain their corresponding reference samples S1-S9; the final drug concentration range was 35000 ng/mL to 0.0896 ng/mL with 9 concentrations in total. HER2 positive tumor cells NCI-N87 in the logarithmic growth phase were collected, adjusted to a density of 1×10^5 cells/mL, and plated at 100 μL per well, and a blank well without any cells was set as a control. The above serially diluted two samples were added at 50 μL per well. The plate was incubated in an incubator at 37° C. with 5% CO2 for 5 days. The culture medium was discarded, and CCK-8 (Dojindo, Japan, Cat. No. CK04) working solution was added at 100 μL per well. The plate was incubated for 4-5 h for color developing and placed in a microplate reader (manufacturer: Thermo, Model: VarioskanFlash). The absorbance values at a wavelength of 450 nm were read and recorded using a reference wavelength of 630 nm. The proliferation inhibition against the tumor cells were calculated.

JIMT-1 tumor cells = experiment: Killing of trastuzumab-resistant cell JIMT-1 with human PBMC effector cells (ADCC, CytoTox96); settings: effector-to-target ratio 20:1
Description: The killing effects of the anti-Her2 bispecific antibodies on target cells (JIMT-1, source: AddexBio, Cat. No. C0006005) were studied using NK cells provided by human PBMCs (peripheral blood mononuclear cells), and the in vitro activity of the anti-Her2 bispecific antibodies was assessed by EC50 value.
The specific procedures are as follows: JIMT-1 cells were adjusted to a cell density of 3×10^5 cells/mL using 1640 medium containing 2% FBS (fetal bovine serum) and seeded in a 96-well cell culture plate (eppendorf, Cat. No. 0030730199) at 50 μL per well. […] Human PBMCs were adjusted to a cell density of 1.5×10^6 cells/mL using medium for experiment and added at 100 μL per well. An administration group (target cell+effector cell+antibody or control drug), a target cell group (JIMT-1BT474 cell), an effector cell group (human PBMC), a target cell+effector cell group, a blank control group (medium) and a lysis solution control group, and a target cell maximum release group (target cell+lysis solution) were set, with the effector-to-target cell ratio being 20:1. 45 min prior to the assay, 20 μL/well of lysis solution (Promega, Cat. No. G182A) was added to the target cell maximum release group and the lysis solution control group. After 45 min, the cell lysis rates were measured using a CytoTox96® nonradioactive cytotoxicity assay (Promega, G1780). […]

[2] = system: NCI-N87 Her2++ tumor cells; experiment: Killing of Her2 positive target cell NCI-N87 with human PBMC effector cells (ADCC, CytoTox96); settings: effector-to-target ratio 10:1
Description: The killing effects of the anti-Her2 bispecific antibodies on target cells (NCI-N87 Her2++, source: the Cell Bank of Type Culture Collection Committee of the Chinese Academy of Sciences) were studied using NK cells provided by human PBMCs (peripheral blood mononuclear cells), and the in vitro activity of the anti-Her2 bispecific antibodies was assessed by EC50 value.
The specific procedures are as follows: NCI-N87 cells were adjusted to a cell density of 3×10^5 cells/mL using 1640 medium containing 2% FBS (fetal bovine serum) and seeded in a 96-well cell culture plate (eppendorf, Cat. No. 0030730199) at 50 μL per well. […] Human PBMCs were adjusted to a cell density of 1.5×10^6 cells/mL using medium for experiment and added at 100 μL per well. An administration group (target cell+effector cell+antibody or control drug), a target cell group (NCI-N87 cell), an effector cell group (human PBMC), a target cell+effector cell group, a blank control group (medium) and a lysis solution control group, and a target cell maximum release group (target cell+lysis solution) were set, with the effector-to-target cell ratio being 10:1. […] After 45 min, the cell lysis rates were measured using a CytoTox96® nonradioactive cytotoxicity assay (Promega, G1780). […]

Compound	IC50 [1] [nM]	EC50 (JIMT-1 tumor cells) [nM]	EC50 [2] [nM]
CC[C@@]1(O)C(=O)OCc2c1cc1n(c2=O)Cc2c-1nc1cc(F)c(C)c3c1c2[C@@H](NC(=O)CO)CC3 [DXD]	4.45	–	–
T-DM1	–	0.0836	0.0739
